Values joined by “and” are separate entries in the source; they are usually repeats but may differ in a detail not shown here. Identical values can stand only once. Like-named read-outs stand apart in the source and are kept apart here.
Experiments:
[1] = system: transgenic soybean expressing mutated PPO; assay: Soybean segregating T1 individuals, greenhouse spray test (injury 0-9); format: in vivo, Glycine max; details: 1 week after treatment
[2] = system: transgenic Arabidopsis thaliana plants expressing wildtype or mutated PPO; assay: Germination / growth inhibition assay of transgenic Arabidopsis T2 seeds in 48-well plates; details: growth inhibition seven to ten days after seeding
[3] = system: transgenic soybean expressing mutated PPO; format: in vivo, Glycine max; details: T1 soybean, field, 3 days after treatment; for injury (1-5 point scale): benzoxazin 50 g ai/ha; for injury (1-5 point scale): key: 1: no obvious damage (no phytotoxicity); 2: minor amount of leaf damage, plant will survive; 3: moderate amount of leaf damage, plant will survive; 4: severe amount of leaf damage, plant will survive; 5: no surviving plants - all plants dead/dying
[4] = transgenic Arabidopsis AMATU_PPO2_F420I
[5] = transgenic Arabidopsis AMATU_PPO2_F420L
[6] = transgenic Arabidopsis AMATU_PPO2_F420M
[7] = transgenic Arabidopsis AMATU_PPO2_R128A_F420I
[8] = transgenic Arabidopsis AMATU_PPO2_R128A_F420L
[9] = transgenic Arabidopsis AMATU_PPO2_R128A_F420M
[10] = transgenic Arabidopsis AMATU_PPO2_R128L
[11] = transgenic Arabidopsis AMATU_PPO2_dG210
[12] = transgenic Arabidopsis AMATU_PPO2_dG210_R128L
[13] = transgenic Arabidopsis AMATU_PPO2_wt

## C#CCN1C(=O)COc2cc(F)c(N3C(=O)C4=C(CCCC4)C3=O)cc21 [Flumioxazin, flumioxazin]
[1]; SDS10791 AmtuPPX2L R128A_F420I, Flumioxazin 150 g ai/ha
  injury (0-9 point scale): 3 (5×) and 1 (3×)
[1]; SDS-10642 AmtuPPX2L R128A_F420L, Flumioxazin 150 g ai/ha
  injury (0-9 point scale): 3 (3×) and 2 (2×) and 1 (2×) and 9
[1]; SDS-10648 AmtuPPX2L R128A_F420I, Flumioxazin 150 g ai/ha
  injury (0-9 point scale): 9 (5×) and 5 (3×)
[1]; SDS-10652 AmtuPPX2L L397D_F420V, Flumioxazin 150 g ai/ha
  injury (0-9 point scale): 9 and 6 (3×) and 5 (2×) and 4 (2×)
[1]; SDS-10787 AmtuPPX2L R128A_F420L, Flumioxazin 150 g ai/ha
  injury (0-9 point scale): 9 (2×) and 5 (4×) and 4 (2×)
[1]; SDS-10985 AmtuPPX2L R128A_F420M, Flumioxazin 150 g ai/ha
  injury (0-9 point scale): 9 (3×) and 6 (2×) and 4 (2×) and 5
[1]; SDS-10990 AmtuPPX2L R128A_F420M, Flumioxazin 150 g ai/ha
  injury (0-9 point scale): 6 (5×) and 5 (2×) and 9
[1]; SDS-11034 AmtuPPX2L R128A_F420V, Flumioxazin 150 g ai/ha
  injury (0-9 point scale): 5 (3×) and 4 and 6 (2×) and 9 and 3
[1]; wild type, Flumioxazin 150 g ai/ha
  injury (0-9 point scale): 9

## CS(=O)(=O)NC(=O)c1cc(Oc2ccc(C(F)(F)F)cc2Cl)ccc1[N+](=O)[O-] [Fomesafen, fomesafen]
[1]; SDS10791 AmtuPPX2L R128A_F420I, Fomesafen 600 g ai/ha
  injury (0-9 point scale): 6 and 3 (2×) and 1 (3×) and 4 and 2
[1]; SDS-10642 AmtuPPX2L R128A_F420L, Fomesafen 600 g ai/ha
  injury (0-9 point scale): 0 (4×) and 1 (4×)
[1]; SDS-10648 AmtuPPX2L R128A_F420I, Fomesafen 600 g ai/ha
  injury (0-9 point scale): 5 and 3 (6×) and 4
[1]; SDS-10652 AmtuPPX2L L397D_F420V, Fomesafen 600 g ai/ha
  injury (0-9 point scale): 1 (2×) and 2 (2×) and 0 (3×) and 4
[1]; SDS-10787 AmtuPPX2L R128A_F420L, Fomesafen 600 g ai/ha
  injury (0-9 point scale): 1 (2×) and 0 (2×) and 2 (2×) and 5 and 3
[1]; SDS-10985 AmtuPPX2L R128A_F420M, Fomesafen 600 g ai/ha
  injury (0-9 point scale): 3 (3×) and 0 (2×) and 1 (2×) and 5
[1]; SDS-10990 AmtuPPX2L R128A_F420M, Fomesafen 600 g ai/ha
  injury (0-9 point scale): 1 (2×) and 3 and 0 (2×) and 4 and 5 (2×)
[1]; SDS-11034 AmtuPPX2L R128A_F420V, Fomesafen 600 g ai/ha
  injury (0-9 point scale): 2 (2×) and 0 (3×) and 1 (3×)
[1]; wild type, Fomesafen 600 g ai/ha
  injury (0-9 point scale): 5 (4×) and 4 (4×)
[2]; [4]
  Relative tolerance rate as compared to a non-transgenic Arabidopsis plant (non-transgenic = 1.0): 18
[2]; [5]
  Relative tolerance rate as compared to a non-transgenic Arabidopsis plant (non-transgenic = 1.0): 23
[2]; [6]
  Relative tolerance rate as compared to a non-transgenic Arabidopsis plant (non-transgenic = 1.0): 29
[2]; [7]
  Relative tolerance rate as compared to a non-transgenic Arabidopsis plant (non-transgenic = 1.0): 29
[2]; [8]
  Relative tolerance rate as compared to a non-transgenic Arabidopsis plant (non-transgenic = 1.0): 29
[2]; [9]
  Relative tolerance rate as compared to a non-transgenic Arabidopsis plant (non-transgenic = 1.0): 29
[2]; [10]
  Relative tolerance rate as compared to a non-transgenic Arabidopsis plant (non-transgenic = 1.0): 27
[2]; [11]
  Relative tolerance rate as compared to a non-transgenic Arabidopsis plant (non-transgenic = 1.0): 29
[2]; [12]
  Relative tolerance rate as compared to a non-transgenic Arabidopsis plant (non-transgenic = 1.0): 29
[2]; [13]
  Relative tolerance rate as compared to a non-transgenic Arabidopsis plant (non-transgenic = 1.0): 19

## CCOC(=O)C(C)OC(=O)c1cc(Oc2ccc(C(F)(F)F)cc2Cl)ccc1[N+](=O)[O-] (stereo not shown) [Lactofen, lactofen]
[2]; [4]
  Relative tolerance rate as compared to a non-transgenic Arabidopsis plant (non-transgenic = 1.0): 17
[2]; [5]
  Relative tolerance rate as compared to a non-transgenic Arabidopsis plant (non-transgenic = 1.0): 19
[2]; [6]
  Relative tolerance rate as compared to a non-transgenic Arabidopsis plant (non-transgenic = 1.0): 29
[2]; [7]
  Relative tolerance rate as compared to a non-transgenic Arabidopsis plant (non-transgenic = 1.0): 27
[2]; [8]
  Relative tolerance rate as compared to a non-transgenic Arabidopsis plant (non-transgenic = 1.0): 29
[2]; [9]
  Relative tolerance rate as compared to a non-transgenic Arabidopsis plant (non-transgenic = 1.0): 29
[2]; [10]
  Relative tolerance rate as compared to a non-transgenic Arabidopsis plant (non-transgenic = 1.0): 22
[2]; [11]
  Relative tolerance rate as compared to a non-transgenic Arabidopsis plant (non-transgenic = 1.0): 19
[2]; [12]
  Relative tolerance rate as compared to a non-transgenic Arabidopsis plant (non-transgenic = 1.0): 29
[2]; [13]
  Relative tolerance rate as compared to a non-transgenic Arabidopsis plant (non-transgenic = 1.0): 8

## CCOc1cc(Oc2ccc(C(F)(F)F)cc2Cl)ccc1[N+](=O)[O-] [Oxyfluorfen]
[1]; SDS10791 AmtuPPX2L R128A_F420I, Oxyfluorfen 600 g ai/ha
  injury (0-9 point scale): 4 (3×) and 8 and 5 (3×) and 3
[1]; SDS10791 AmtuPPX2L R128A_F420I, Oxyfluorfen 1200 g ai/ha
  injury (0-9 point scale): 9 (2×) and 4 (2×) and 5 (4×)
[1]; SDS-10642 AmtuPPX2L R128A_F420L, Oxyfluorfen 600 g ai/ha
  injury (0-9 point scale): 2 (3×) and 4 and 3 (3×) and 8
[1]; SDS-10648 AmtuPPX2L R128A_F420I, Oxyfluorfen 600 g ai/ha
  injury (0-9 point scale): 5 and 7 and 6 (2×) and 8 (2×) and 9 and 3
[1]; SDS-10648 AmtuPPX2L R128A_F420I, Oxyfluorfen 1200 g ai/ha
  injury (0-9 point scale): 5 (3×) and 9 (4×) and 4
[1]; SDS-10652 AmtuPPX2L L397D_F420V, Oxyfluorfen 600 g ai/ha
  injury (0-9 point scale): 4 (3×) and 5 and 6 (2×) and 9
[1]; SDS-10787 AmtuPPX2L R128A_F420L, Oxyfluorfen 600 g ai/ha
  injury (0-9 point scale): 6 (3×) and 5 (2×) and 8
[1]; SDS-10985 AmtuPPX2L R128A_F420M, Oxyfluorfen 600 g ai/ha
  injury (0-9 point scale): 1 and 3 (3×) and 4 (3×) and 9
[1]; SDS-10985 AmtuPPX2L R128A_F420M, Oxyfluorfen 1200 g ai/ha
  injury (0-9 point scale): 5 (3×) and 4 (3×) and 8 (2×)
[1]; SDS-10990 AmtuPPX2L R128A_F420M, Oxyfluorfen 600 g ai/ha
  injury (0-9 point scale): 4 (4×) and 8 and 3 and 9 and 5
[1]; SDS-10990 AmtuPPX2L R128A_F420M, Oxyfluorfen 1200 g ai/ha
  injury (0-9 point scale): 9 and 5 (5×) and 4 (2×)
[1]; SDS-11034 AmtuPPX2L R128A_F420V, Oxyfluorfen 600 g ai/ha
  injury (0-9 point scale): 4 (3×) and 9 and 5 (3×)
[1]; wild type, Oxyfluorfen 600 g ai/ha
  injury (0-9 point scale): 8 (3×) and 7 (3×) and 9 (2×)

## C1=Cc2ccccc2ON1 [benzoxazin]
[3]; SDS-10562 LTM377-1 AmtuPPX2L_dG210, benzoxazin (50 gai/ha)
  Injury rating (1-5 point scale): 3
[3]; SDS-10562 LTM377-1 AmtuPPX2L_dG210, benzoxazin (100 gai/ha)
  Injury rating (1-5 point scale): 3
[3]; SDS-10566 LTM377-1 AmtuPPX2L_dG210, benzoxazin (50 gai/ha)
  Injury rating (1-5 point scale): 3
[3]; SDS-10566 LTM377-1 AmtuPPX2L_dG210, benzoxazin (100 gai/ha)
  Injury rating (1-5 point scale): 3
[3]; SDS-10648 AmtuPPX2L R128A_F420I
  injury (1-5 point scale): 3
[3]; SDS-10656 LTM377-1 AmtuPPX2L_dG210, benzoxazin (50 gai/ha)
  Injury rating (1-5 point scale): 4
[3]; SDS-10656 LTM377-1 AmtuPPX2L_dG210, benzoxazin (100 gai/ha)
  Injury rating (1-5 point scale): 4
[3]; SDS-10791 AmtuPPX2L R128A_F420I
  injury (1-5 point scale): 2
[3]; SDS-10998 LTM387-1 AmtuPPX2L_R128A_F420V, benzoxazin (50 gai/ha)
  Injury rating (1-5 point scale): 2.5
[3]; SDS-10998 LTM387-1 AmtuPPX2L_R128A_F420V, benzoxazin (100 gai/ha)
  Injury rating (1-5 point scale): 2.5
[3]; SDS-11014 AmtuPPX2L R128A_F420I
  injury (1-5 point scale): 2
[3]; SDS-11034 AmtuPPX2L L397D_F420V
  injury (1-5 point scale): 2
[3]; SDS-11034 LTM387-1 AmtuPPX2L_R128A_F420V, benzoxazin (50 gai/ha)
  Injury rating (1-5 point scale): 2
[3]; SDS-11034 LTM387-1 AmtuPPX2L_R128A_F420V, benzoxazin (100 gai/ha)
  Injury rating (1-5 point scale): 2
[3]; SDS-11035 AmtuPPX2L R128A_F420V
  injury (1-5 point scale): 2
[3]; SDS-11035 LTM387-1 AmtuPPX2L_R128A_F420V, benzoxazin (50 gai/ha)
  Injury rating (1-5 point scale): 2
[3]; SDS-11035 LTM387-1 AmtuPPX2L_R128A_F420V, benzoxazin (100 gai/ha)
  Injury rating (1-5 point scale): 2
[3]; SDS-11052 AmtuPPX2L R128A_F420M
  injury (1-5 point scale): 3
[3]; SDS-11105 LTM387-1 AmtuPPX2L_R128A_F420V, benzoxazin (50 gai/ha)
  Injury rating (1-5 point scale): 3
[3]; SDS-11105 LTM387-1 AmtuPPX2L_R128A_F420V, benzoxazin (100 gai/ha)
  Injury rating (1-5 point scale): 3
[3]; SDS-11110 LTM387-1 AmtuPPX2L_R128A_F420V, benzoxazin (50 gai/ha)
  Injury rating (1-5 point scale): 3
[3]; SDS-11110 LTM387-1 AmtuPPX2L_R128A_F420V, benzoxazin (100 gai/ha)
  Injury rating (1-5 point scale): 3
[3]; Wildtype Jake, benzoxazin (50 gai/ha)
  Injury rating (1-5 point scale): 5
[3]; Wildtype Jake, benzoxazin (100 gai/ha)
  Injury rating (1-5 point scale): 5
[3]; wild type
  injury (1-5 point scale): 5
